Legend:
FGFR2 = FGFR2 (Homo sapiens (Human), UniProt P21802); test: FGFR2 Biochemical Caliper Assay
Experimental: Compounds of the present invention were also tested in a FGFR2 Biochemical Caliper Assay. Compounds were prepared in 10 mM DMSO solution and serially diluted into 11 concentrations by 3-fold dilution. […] 5 uL of ATP solution (100 uM) was added to start the reaction and the plate was incubated for 90 minutes, then 70 uL of stopping buffer (0.5M EDTA) was added to terminate the reaction. Each well was analyzed using EZ reader.

SNU16 cells = test: SNU16 Cancer Cell Line Proliferation Assay; type: cell-based; conditions: Homo sapiens; SNU-16 cells
Experimental: Compounds of the present invention were also tested in a SNU16 Cancer Cell Line Proliferation Assay, Test compounds were prepared in a 10 mM DMSO stock solution. 45 uL of stock solution was transferred to a 384 well plate, and a 3-fold 11-point dolution was performed. SNU16 cells in a 384 well cell culture plate were seeded and incubated at 37 degrees for 24 hours. 40 nL of each concentration of compound was transferred from the compound plate to a corresponding well in the cell culture plate by Echo550 liquid handler. The plates were incubated for 96 hours, then equilibrated to room temperature for 15 minutes. 20 uL of CellTiter Glo reagent is added into each well, then the plate was shaken gently for 30 minutes at room temperature. Chemiluminescence was then read on an EnVision reader.

Sequence of FGFR2 (P21802 22-821): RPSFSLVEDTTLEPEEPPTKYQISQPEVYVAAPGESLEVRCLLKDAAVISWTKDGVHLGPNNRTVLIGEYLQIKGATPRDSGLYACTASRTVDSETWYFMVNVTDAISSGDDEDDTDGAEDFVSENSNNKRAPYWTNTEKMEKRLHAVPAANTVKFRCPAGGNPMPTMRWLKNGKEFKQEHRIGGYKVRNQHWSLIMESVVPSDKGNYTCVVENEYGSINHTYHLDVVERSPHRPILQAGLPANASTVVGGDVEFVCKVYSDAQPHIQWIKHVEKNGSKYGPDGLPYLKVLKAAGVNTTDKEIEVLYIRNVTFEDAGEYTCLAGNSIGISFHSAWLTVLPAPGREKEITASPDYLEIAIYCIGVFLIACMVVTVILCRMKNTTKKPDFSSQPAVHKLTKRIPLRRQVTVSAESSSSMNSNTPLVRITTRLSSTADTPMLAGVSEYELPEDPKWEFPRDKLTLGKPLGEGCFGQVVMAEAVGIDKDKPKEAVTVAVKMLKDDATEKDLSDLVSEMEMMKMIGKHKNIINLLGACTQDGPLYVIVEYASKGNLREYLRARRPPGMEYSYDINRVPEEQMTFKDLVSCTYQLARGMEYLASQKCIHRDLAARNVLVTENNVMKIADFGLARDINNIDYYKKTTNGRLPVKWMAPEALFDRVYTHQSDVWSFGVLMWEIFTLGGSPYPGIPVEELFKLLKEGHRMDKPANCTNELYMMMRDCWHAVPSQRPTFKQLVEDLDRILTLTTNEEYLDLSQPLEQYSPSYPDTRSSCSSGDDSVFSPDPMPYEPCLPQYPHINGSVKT

Structure (SMILES) | IC50 (FGFR2) | IC50 (SNU16 cells)
C=C(C)C(=O)Nc1ccc(-c2c(-c3ccc(NC(C)=O)c(OC)c3)c3c(N)ncnc3n2C)cc1 [Example 86] | 1000 to 100000 nM | 250 to 1000 nM
C=C(C)C(=O)Nc1ccc(-c2c(-c3ccc(Oc4ccc(F)cn4)c(F)c3)c3c(N)ncnc3n2C)cc1 [Example 114] | 250 to 1000 nM | 100 to 250 nM
C=C(C)C(=O)Nc1ccc(-c2c(-c3ccc(Oc4ccc(OC)c(F)n4)cc3)c3c(N)ncnc3n2C)cc1 [Example 117] | 250 to 1000 nM | 100 to 250 nM
C=C(C)C(=O)Nc1ccc(-c2c(-c3ccc(C(=O)N4CC(C)C4)cc3)c3c(N)ncnc3n2C)cc1 [Example 135] | 250 to 1000 nM | 100 to 250 nM
C=C(C)C(=O)Nc1ccc(-c2c(-c3ccc(C(=O)N4CCC(F)(F)C4)cc3)c3c(N)ncnc3n2C)cc1 [Example 137] | 250 to 1000 nM | ≤ 100 nM
C=C(C)C(=O)Nc1ccc(-c2c(-c3ccc(Cn4nc(C)cc4C)cc3)c3c(N)ncnc3n2C)cc1 [Example 140] | 250 to 1000 nM | 100 to 250 nM
C=C(C)C(=O)Nc1ccc(-c2c(-c3ccc(C(=O)N(C)C)nc3)c3c(N)ncnc3n2C)cc1 [Example 143] | 1000 to 100000 nM | 250 to 1000 nM
C=C(C)C(=O)Nc1ccc(-c2c(-c3ccc(C(=O)N(C)C)cc3)c3c(N)ncnc3n2C)cc1 [Example 152] | 250 to 1000 nM | 250 to 1000 nM
C=C(C)C(=O)Nc1ccc(-c2c(-c3ccc(C(=O)N4CCCC4)c(OC)c3)c3c(N)ncnc3n2C)cc1 [Example 156] | 250 to 1000 nM | 100 to 250 nM
C=C(C)C(=O)Nc1ccc(-c2c(-c3ccc(C(=O)N4CCC(O)C4)cc3)c3c(N)ncnc3n2C)cc1 (centres unmarked) [Example 157] | 250 to 1000 nM | 250 to 1000 nM
C=C(C)C(=O)Nc1ccc(-c2c(-c3ccc([S+]([O-])C4CC4)cc3)c3c(N)ncnc3n2C)cc1 (centres unmarked) [Example 160] | 250 to 1000 nM | 250 to 1000 nM
C=C(C)C(=O)Nc1ccc(-c2c(-c3cncc(N4CCOCC4)c3)c3c(N)ncnc3n2C)cc1 [Example 166] | 1000 to 100000 nM | 250 to 1000 nM
C=C(C)C(=O)Nc1ccc(-c2c(-c3ccc(Oc4cccc(F)c4)nc3)c3c(N)ncnc3n2C)cc1 [Example 167] | 1000 to 100000 nM | 100 to 250 nM
C=C(C)C(=O)Nc1ccc(-c2c(-c3ccc(Oc4cccc(C(F)(F)F)c4)nc3)c3c(N)ncnc3n2C)cc1 [Example 169] | 1000 to 100000 nM | 250 to 1000 nM
C=C(C)C(=O)Nc1ccc(-c2c(-c3ccc(C(=O)N4CCOCC4)cc3)c3c(N)ncnc3n2C)cc1 [Example 176] | 1000 to 100000 nM | 250 to 1000 nM
C=C(C)C(=O)Nc1ccc(-c2c(-c3ccc4sc(C(=O)N(C)C)cc4c3)c3c(N)ncnc3n2C)cc1 [Example 180] | 250 to 1000 nM | 100 to 250 nM
C=C(C)C(=O)Nc1ccc(-c2c(-c3ccc(N4CCCCC4=O)cc3)c3c(N)ncnc3n2C)cc1 [Example 186] | 1000 to 100000 nM | 250 to 1000 nM
C=C(C)C(=O)Nc1ccc(-c2c(-c3ccc(CN4CCOCC4=O)cc3)c3c(N)ncnc3n2C)cc1 [Example 188] | 1000 to 100000 nM | 250 to 1000 nM
C=C(C)C(=O)Nc1ccc(-c2c(-c3ccc(C(=O)N4CCC(C)CC4)cc3)c3c(N)ncnc3n2C)cc1 [Example 190] | 1000 to 100000 nM | 250 to 1000 nM
C=C(C)C(=O)Nc1ccc(-c2c(-c3ccc(N4CCNC4=O)cc3)c3c(N)ncnc3n2C)cc1 [Example 194] | 250 to 1000 nM | 250 to 1000 nM
C=C(C)C(=O)Nc1ccc(-c2c(C3CCN(C(=O)N4CCCC4)CC3)c3c(N)ncnc3n2C)cc1 [Example 197] | 1000 to 100000 nM | 250 to 1000 nM
C=C(C)C(=O)Nc1ccc(-c2c(-c3ccc(-c4ccon4)cc3)c3c(N)ncnc3n2C)cc1 [Example 199] | 250 to 1000 nM | 250 to 1000 nM
C=C(C)C(=O)Nc1ccc(-c2c(C3=CCC(C(=O)NC)CC3)c3c(N)ncnc3n2C)cc1 (centres unmarked) [Example 201] | 1000 to 100000 nM | 250 to 1000 nM
C=C(C)C(=O)Nc1ccc(-c2c(-c3ccc(OC4CCOC4)c(C)c3)c3c(N)ncnc3n2C)cc1 (centres unmarked) [Example 202] | 250 to 1000 nM | 100 to 250 nM
C=C(C)C(=O)Nc1ccc(-c2c(-c3ccc4c(c3)CCCN4C)c3c(N)ncnc3n2C)cc1 [Example 207] | 250 to 1000 nM | 250 to 1000 nM
C=C(C)C(=O)Nc1c(F)cc(-c2c(-c3ccc(C(=O)N4CCCC4)cc3)c3c(N)ncnc3n2C)cc1F [Example 210] | 1000 to 100000 nM | 250 to 1000 nM

Continued, values first:

IC50 (FGFR2) | IC50 (SNU16 cells) | Structure (SMILES)
< 100 nM | ≤ 100 nM | C=CC(=O)Nc1ccc(-c2c(-c3ccc(Oc4ncc(Cl)cn4)c(OC)c3)c3c(N)ncnc3n2C)cc1 [Example 78]
< 100 nM | ≤ 100 nM | C=C(C)C(=O)Nc1ccc(-c2c(-c3ccc(Oc4cccc(C)n4)cc3)c3c(N)ncnc3n2CC)cc1 [Example 83]
< 100 nM | ≤ 100 nM | C=C(C)C(=O)Nc1ccc(-c2c(-c3ccc(Oc4cccc(C)n4)cc3)c3c(N)ncnc3n2C2CC(O)C2)cc1 (centres unmarked) [Example 90]
< 100 nM | ≤ 100 nM | C=C(C)C(=O)Nc1ccc(-c2c(-c3ccc(Oc4cccc(C)n4)cc3)c3c(N)ncnc3n2CCO)cc1 [Example 91]
< 100 nM | ≤ 100 nM | C=C(C)C(=O)Nc1ccc(-c2c(-c3cc(F)c(Oc4ncccn4)c(Cl)c3)c3c(N)ncnc3n2C)cc1 [Example 94]
100 to 250 nM | ≤ 100 nM | C=C(C)C(=O)Nc1ccc(-c2c(-c3ccc(C(=O)N4CCCC4)cc3)c3c(N)ncnc3n2C)cc1 [Example 95]
< 100 nM | ≤ 100 nM | C=C(C)C(=O)Nc1ccc(-c2c(-c3ccc(Oc4ncc(C)cn4)c(F)c3)c3c(N)ncnc3n2C)cc1 [Example 96]
< 100 nM | ≤ 100 nM | C=CC(=O)Nc1ccc(-c2c(-c3ccc(Oc4ncc(NC)cn4)c(OC)c3)c3c(N)ncnc3n2C)cc1 [Example 98]
250 to 1000 nM | 100 to 250 nM | C=C(C)C(=O)Nc1ccc(-c2c(-c3ccc(Oc4ccn(C)n4)c(OC)c3)c3c(N)ncnc3n2C)cc1 [Example 100]
< 100 nM | ≤ 100 nM | C=CC(=O)Nc1ccc(-c2c(-c3ccc(Oc4ncc(F)cn4)c(OC)c3)c3c(N)ncnc3n2C)cc1 [Example 101]
< 100 nM | ≤ 100 nM | C=CC(=O)Nc1ccc(-c2c(-c3ccc(Oc4ncc(Cl)cn4)cc3)c3c(N)ncnc3n2C)cc1 [Example 103]
< 100 nM | ≤ 100 nM | C=C(C)C(=O)Nc1ccc(-c2c(-c3cc(F)c(Oc4ncccn4)c(F)c3)c3c(N)ncnc3n2C)cc1 [Example 110]
< 100 nM | ≤ 100 nM | C=CC(=O)Nc1ccc(-c2c(-c3ccc(Oc4ncc(C(F)F)cn4)c(OC)c3)c3c(N)ncnc3n2C)cc1 [Example 113]
< 100 nM | ≤ 100 nM | C=C(C)C(=O)Nc1ccc(-c2c(-c3ccc(Oc4ncc(F)cn4)c(F)c3)c3c(N)ncnc3n2C)cc1 [Example 116]
< 100 nM | ≤ 100 nM | C=CC(=O)Nc1ccc(-c2c(-c3cc(C)c(Oc4ncccn4)c(OC)c3)c3c(N)ncnc3n2C)cc1 [Example 120]
< 100 nM | ≤ 100 nM | C=CC(=O)Nc1ccc(-c2c(-c3ccc(Oc4ccc(Cl)c(C)n4)cc3)c3c(N)ncnc3n2C)cc1 [Example 123]
< 100 nM | ≤ 100 nM | C=CC(=O)Nc1ccc(-c2c(-c3ccc(C(=O)N4CCCC4)cc3)c3c(N)ncnc3n2C)cc1 [Example 128]
< 100 nM | ≤ 100 nM | C=C(C)C(=O)Nc1ccc(-c2c(-c3ccc(C(=O)N4CCCCC4)cc3)c3c(N)ncnc3n2C)cc1 [Example 141]
< 100 nM | ≤ 100 nM | C=CC(=O)Nc1ccc(-c2c(-c3ccc(Oc4ccn(C)n4)c(OC)c3)c3c(N)ncnc3n2C)cc1 [Example 145]
< 100 nM | ≤ 100 nM | C=CC(=O)Nc1ccc(-c2c(C3=CCC(C(=O)NC)CC3)c3c(N)ncnc3n2C)cc1 (centres unmarked) [Example 148]
< 100 nM | ≤ 100 nM | C=C(C)C(=O)Nc1ccc(-c2c(-c3ccc(S(=O)(=O)C4CCCC4)cc3)c3c(N)ncnc3n2C)cc1 [Example 150]
100 to 250 nM | ≤ 100 nM | C=C(C)C(=O)Nc1ccc(-c2c(-c3ccc(C(=O)N4CC5CCCC5C4)cc3)c3c(N)ncnc3n2C)cc1 (centres unmarked) [Example 154]
< 100 nM | ≤ 100 nM | CC#CC(=O)Nc1ccc(-c2c(-c3ccc(C(=O)N4CCCC4)cc3)c3c(N)ncnc3n2C)cc1 [Example 155]
< 100 nM | ≤ 100 nM | C=CC(=O)Nc1ccc(-c2c(-c3ccc(C(=O)N4CCCC4)c(OC)c3)c3c(N)ncnc3n2C)cc1 [Example 161]
100 to 250 nM | 250 to 1000 nM | C=CC(=O)Nc1ccc(-c2c(C3=CCC(NC(C)=O)CC3)c3c(N)ncnc3n2C)cc1 (centres unmarked) [Example 171]
< 100 nM | ≤ 100 nM | C=CC(=O)Nc1ccc(-c2c(-c3ccc(OC4CCOC4)c(C)c3)c3c(N)ncnc3n2C)cc1 (centres unmarked) [Example 174]
< 100 nM | ≤ 100 nM | C=C(C)C(=O)Nc1ccc(-c2c(-c3ccc(C(=O)N4CCCCC4C)cc3)c3c(N)ncnc3n2C)cc1 (centres unmarked) [Example 189]
< 100 nM | 100 to 250 nM | CN(C)C/C=C/C(=O)Nc1ccc(-c2c(-c3ccc(C(=O)N4CCCC4)cc3)c3c(N)ncnc3n2C)cc1 [Example 206]
< 100 nM | ≤ 100 nM | C=CC(=O)Nc1ccc(-c2c(-c3ccc4c(c3)CCCN4C)c3c(N)ncnc3n2C)cc1 [Example 211]

Reference: US11780845B2 (Relay Therapeutics, Inc., priority 2019, dated 2023)
